“And” between values parts separate entries of the source, which are not always exact repeats. Equal entries are not always repeated. Where two headings read alike, the source gives them in different places. Non-standard residues stand in square brackets, D forms with d. Residues, ends and D or L forms follow the SMILES beside them. *: point of attachment. NH(3,5-(CF3)2-benzyl) = FC(F)(F)c1cc(CN*)cc(C(F)(F)F)c1; NMeW = CN[C@@H](Cc1c[nH]c2ccccc12)C(=O)O; Dmt = Cc1cc(O)cc(C)c1C[C@H](N)C(=O)O; NMeF = CN[C@@H](Cc1ccccc1)C(=O)O
Experiments:
hNK1 = molecular target: T1, hNK1 (Homo sapiens, UniProt P25103); experiment: hNK1/CHO cell membrane radioligand binding assay ([3H]SP); conditions: for Ki: hNK1/CHO membranes, [3H]SP; for Ki^hNK1/Ki^rNK1: ratio human/rat NK1
T1 construct: expressed in transfected cells; host or cells: CHO
T1 sequence (P25103 whole entry): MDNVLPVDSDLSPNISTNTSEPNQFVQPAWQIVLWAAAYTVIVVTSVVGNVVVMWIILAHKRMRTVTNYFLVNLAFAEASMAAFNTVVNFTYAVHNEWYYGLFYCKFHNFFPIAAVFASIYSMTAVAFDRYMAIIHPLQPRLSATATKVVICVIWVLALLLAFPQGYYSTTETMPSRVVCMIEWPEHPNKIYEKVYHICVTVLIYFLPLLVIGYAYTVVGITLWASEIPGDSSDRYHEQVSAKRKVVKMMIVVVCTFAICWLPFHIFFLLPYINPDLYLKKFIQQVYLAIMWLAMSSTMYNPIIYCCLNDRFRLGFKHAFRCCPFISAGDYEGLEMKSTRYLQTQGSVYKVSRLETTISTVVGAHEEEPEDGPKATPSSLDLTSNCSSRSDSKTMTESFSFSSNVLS

MOR [1] = experiment: Radioligand binding assay at μ opioid receptor; conditions: for Log[IC50±] (μ): log IC50 ± error; for Ki^μ/Ki^δ: ratio of binding affinities MOR/DOR
Protocol: (§1) Binding affinities of these ligands were measured on radioligand binding assays. […] ([43]).

NK1R = molecular target: T2, NK1R (Cavia porcellus, UniProt P30547); experiment: GPI/LMMP functional assay at NK1R (agonist and antagonist testing); type: cell-based, guinea pig; conditions: for GPI/LMMP (NK1R) Agonist: agonist activity at the concentration in the cell
T2 construct: The longitudinal muscle with myenteric plexus (LMMP) was carefully separated from the circular muscle; from tissue; host or cells: guinea pig ileum longitudinal muscle with myenteric plexus
T2 sequence (P30547 whole entry): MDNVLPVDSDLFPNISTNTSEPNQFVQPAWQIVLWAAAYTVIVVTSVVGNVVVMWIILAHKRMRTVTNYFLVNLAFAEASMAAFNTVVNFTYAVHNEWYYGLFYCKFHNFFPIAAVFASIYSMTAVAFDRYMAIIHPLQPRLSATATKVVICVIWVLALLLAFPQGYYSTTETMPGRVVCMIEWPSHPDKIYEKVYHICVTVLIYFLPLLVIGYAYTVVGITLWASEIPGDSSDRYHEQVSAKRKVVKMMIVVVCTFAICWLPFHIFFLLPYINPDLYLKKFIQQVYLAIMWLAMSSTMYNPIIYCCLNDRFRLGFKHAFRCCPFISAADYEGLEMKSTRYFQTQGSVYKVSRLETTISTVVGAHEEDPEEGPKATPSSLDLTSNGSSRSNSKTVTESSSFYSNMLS

DOR [2] = molecular target: DOR (Homo sapiens, UniProt P41143); experiment: Radioligand binding assay at δ opioid receptor; conditions: for Ki: Ki^δ (nM)
Sequence of DOR (Homo sapiens, UniProt P41143) (P41143 whole entry): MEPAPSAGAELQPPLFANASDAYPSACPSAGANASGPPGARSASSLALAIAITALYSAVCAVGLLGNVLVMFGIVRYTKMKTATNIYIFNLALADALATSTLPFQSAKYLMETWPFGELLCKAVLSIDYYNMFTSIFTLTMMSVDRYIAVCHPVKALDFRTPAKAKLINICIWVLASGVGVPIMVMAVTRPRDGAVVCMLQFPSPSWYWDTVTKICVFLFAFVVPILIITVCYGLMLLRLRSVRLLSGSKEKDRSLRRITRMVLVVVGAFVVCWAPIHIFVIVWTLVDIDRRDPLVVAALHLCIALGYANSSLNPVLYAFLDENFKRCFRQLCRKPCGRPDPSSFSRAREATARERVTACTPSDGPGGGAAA
Protocol: as §1

rNK1 = rNK1 (Rattus norvegicus, UniProt P14600); experiment: Radioligand binding assay at rat NK1 receptor
Sequence of rNK1 (P14600 whole entry): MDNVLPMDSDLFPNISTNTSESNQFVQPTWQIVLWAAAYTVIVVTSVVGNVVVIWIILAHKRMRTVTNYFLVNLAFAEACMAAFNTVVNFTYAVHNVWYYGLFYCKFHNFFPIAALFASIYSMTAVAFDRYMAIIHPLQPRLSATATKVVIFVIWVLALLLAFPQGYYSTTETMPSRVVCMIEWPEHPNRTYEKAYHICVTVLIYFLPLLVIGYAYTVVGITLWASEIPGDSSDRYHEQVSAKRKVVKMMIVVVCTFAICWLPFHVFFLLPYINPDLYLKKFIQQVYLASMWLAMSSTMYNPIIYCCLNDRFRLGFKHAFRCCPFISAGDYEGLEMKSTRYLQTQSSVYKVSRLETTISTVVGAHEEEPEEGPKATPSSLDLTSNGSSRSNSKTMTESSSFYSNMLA
Protocol: as §1

DOR [3] = molecular target: T3, DOR (Mus musculus, UniProt P32300); experiment: Mouse isolated vas deferens (MVD) functional assay; type: cell-based
T3 construct: Male ICR mice under CO2 anesthesia were sacrificed by cervical dislocation and the vasa differentia removed; from tissue; host or cells: mouse vas deferens (ICR mice)
T3 sequence (P32300 whole entry): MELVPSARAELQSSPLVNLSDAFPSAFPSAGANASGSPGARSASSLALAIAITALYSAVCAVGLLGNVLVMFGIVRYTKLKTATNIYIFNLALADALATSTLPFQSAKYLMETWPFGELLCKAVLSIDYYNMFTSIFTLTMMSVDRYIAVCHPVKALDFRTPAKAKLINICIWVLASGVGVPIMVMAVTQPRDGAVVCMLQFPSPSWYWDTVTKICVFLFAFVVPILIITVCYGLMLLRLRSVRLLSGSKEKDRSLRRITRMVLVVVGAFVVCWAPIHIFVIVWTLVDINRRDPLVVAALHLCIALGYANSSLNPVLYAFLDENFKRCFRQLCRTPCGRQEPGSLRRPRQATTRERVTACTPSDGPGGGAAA

MOR [4] = experiment: Guinea pig isolated ileum (GPI) functional assay; type: cell-based
[5] = GPI/LMMP (NK1R) Ke (nM) ± S.E.M., antagonist activity
[6] = MVD (DOR) IC50 (nM), agonist activity, electrically stimulated tissue
[7] = agonist activity, electrically stimulated tissue, read-out: GPI (MOR) IC50

SMILES | Ki (hNK1; Ki^hNK1 (nM)) | Ki^hNK1/Ki^rNK1 (hNK1) | Ki (MOR [1]) | Log[IC50±] (μ) (MOR [1]) | Ki^μ/Ki^δ (MOR [1]) | GPI/LMMP (NK1R) Agonist (NK1R) | IC50 (DOR [2]) | Ki (rNK1; Ki^rNK1 (nM)) | Ki (DOR [2]) | further results
CC(C)C[C@H](NC(=O)[C@@H]1CCCN1C(=O)[C@@H](CO)NC(=O)[C@H](Cc1ccccc1)NC(=O)CNC(=O)[C@@H](C)NC(=O)[C@@H](N)Cc1ccc(O)cc1)C(=O)N[C@@H](Cc1c[nH]c2ccccc12)C(=O)NCc1cc(C(F)(F)F)cc(C(F)(F)F)c1 [AKG101] | 3 nM | 1/39 | 200 nM | −6.35 ± 0.26 | 6/1 | None at 100 nM | 74.1 nM | 110 nM |  | Kb (NK1R; [5]): 28 ± 11.8 nM; IC50 (DOR [3]; [6]): 6.7 nM and 6.72 nM
CC(C)C[C@H](NC(=O)[C@@H]1CCCN1C(=O)[C@H](CC(N)=O)NC(=O)[C@H](Cc1ccccc1)NC(=O)CNC(=O)[C@@H](C)NC(=O)[C@@H](N)Cc1ccc(O)cc1)C(=O)N[C@@H](Cc1c[nH]c2ccccc12)C(=O)NCc1cc(C(F)(F)F)cc(C(F)(F)F)c1 [AKG104] |  |  |  | −6.93 ± 0.05 | 3/1 |  | 37.2 nM | 20 nM | 17 nM | 
CC(C)C[C@H](NC(=O)[C@@H]1CCCN1C(=O)[C@H](CCC(N)=O)NC(=O)[C@H](Cc1ccccc1)NC(=O)CNC(=O)[C@@H](C)NC(=O)[C@@H](N)Cc1ccc(O)cc1)C(=O)N[C@@H](Cc1c[nH]c2ccccc12)C(=O)NCc1cc(C(F)(F)F)cc(C(F)(F)F)c1 [AKG105] | 1 nM |  |  | −7.06 ± 0.18 |  |  | 20.4 nM | 12 nM | 9 nM | 
CC(C)C[C@H](NC(=O)[C@@H]1CCCN1C(=O)CNC(=O)[C@H](Cc1ccccc1)N(C)C(=O)CNC(=O)[C@@H](C)NC(=O)[C@@H](N)Cc1ccc(O)cc1)C(=O)N[C@@H](Cc1c[nH]c2ccccc12)C(=O)NCc1cc(C(F)(F)F)cc(C(F)(F)F)c1 [AKG113, H-Tyr-D-Ala-Gly-NMePhe-Gly-Pro-Leu-Trp-NH-Bn(3′,5′-(CF3)2)] (H-Y[dA]G[NMeF]GPLW-{NH(3,5-(CF3)2-benzyl)}) |  | 1/4 | 3 nM | −8.23 ± 0.03 | 1/15 | None at 100 nM | 100 nM | 60 nM | 46 nM | binding selectivity for MOR over DOR (MOR [1]): 15 times; GPI/MVD IC50 ratio (MOR [4]): 2/1; IC50 (MOR [4]; [7]): 79.2 nM; Kb (NK1R; [5]): 14.9 ± 2.9 nM; IC50 (DOR [3]; [6]): 38.7 ± 9.69 nM
CC(C)C[C@H](NC(=O)[C@@H]1CCCN1C(=O)c1ccc(CNC(=O)[C@H](Cc2ccccc2)N(C)C(=O)CNC(=O)[C@@H](C)NC(=O)[C@@H](N)Cc2ccc(O)cc2)cc1)C(=O)N[C@@H](Cc1c[nH]c2ccccc12)C(=O)NCc1cc(C(F)(F)F)cc(C(F)(F)F)c1 [AKG125, H-Tyr-D-Ala-Gly-NMePhe-4-Amb-Pro-Leu-Trp-NH-Bn(3′,5′-(CF3)2)] | 2.3 nM | 1/13 | 5 nM | −7.92 ± 0.11 |  | None at 100 nM | 263 nM | 30 nM |  | binding selectivity for MOR over DOR (MOR [1]): 23 times; GPI/MVD IC50 ratio (MOR [4]): 10/1; IC50 (MOR [4]; [7]): 470 nM and 471 nM; Kb (NK1R): 8.36 ± 4.12 nM; IC50 (DOR [3]): 46.3 ± 13.4 nM; higher agonist activity at DOR compared to MOR (functional assays) (DOR [3]): 10 times
CC(C)C[C@H](NC(=O)[C@@H]1CCCN1C(=O)[C@H](CO)NC(=O)[C@H](Cc1ccccc1)N(C)C(=O)CNC(=O)[C@@H](C)NC(=O)[C@@H](N)Cc1ccc(O)cc1)C(=O)N[C@@H](Cc1c[nH]c2ccccc12)C(=O)NCc1cc(C(F)(F)F)cc(C(F)(F)F)c1 [AKG126] (H-Y[dA]G[NMeF]SPLW-{NH(3,5-(CF3)2-benzyl)}) | 1 nM | 1/37 | 2 nM | −8.30 ± 0.11 | 1/31 | None at 30 nM | 148 nM |  |  | binding selectivity for MOR over DOR (MOR [1]): 31 times; GPI/MVD IC50 ratio (MOR [4]): 9/1; IC50 (MOR [4]; [7]): 240 nM; IC50 (MOR [4]; head of Table IX, read-out: GPI (MOR) ID50): 237 ± 29.2 nM; Kb (NK1R; [5]): 17 nM and 16.5 nM; higher agonist activity at DOR compared to MOR (functional assays) (DOR [3]): 9 times; IC50 (DOR [3]; [6]): 25.9 ± 6.69 nM
CC(C)C[C@H](NC(=O)[C@@H]1CCCN1C(=O)Cc1ccc(NC(=O)[C@H](Cc2ccccc2)N(C)C(=O)CNC(=O)[C@@H](C)NC(=O)[C@@H](N)Cc2ccc(O)cc2)cc1)C(=O)N[C@@H](Cc1c[nH]c2ccccc12)C(=O)NCc1cc(C(F)(F)F)cc(C(F)(F)F)c1 [AKG177, H-Tyr-D-Ala-Gly-NMePhe-4-Apac-Pro-Leu-Trp-NH-Bn(3′,5′-(CF3)2)] |  | 1/14 | 1 nM | −8.68 ± 0.19 | 1/70 | None at 100 nM | 148 nM |  | 70 nM | GPI/MVD IC50 ratio (MOR [4]): 1/1; IC50 (MOR [4]; [7]): 41 nM and 40.8 nM; Kb (NK1R): 39.2 ± 7.9 nM; IC50 (DOR [3]): 35 ± 7.89 nM
Cc1cc(O)cc(C)c1C[C@H](N)C(=O)N[C@H](C)C(=O)N(C)CC(=O)N(C)[C@@H](Cc1ccccc1)C(=O)N1CCC[C@H]1C(=O)N[C@@H](CC(C)C)C(=O)N[C@@H](Cc1c[nH]c2ccccc12)C(=O)NCc1cc(C(F)(F)F)cc(C(F)(F)F)c1 [AKG182, H-Dmt-D-Ala-NMeGly-NMePhe-Pro-Leu-Trp-NH-Bn(3′,5′-(CF3)2)] |  | 1/22 |  |  |  |  |  | 110 ± 18.3 nM |  | 
CC(C)C[C@H](NC(=O)[C@@H]1CCCN1C(=O)[C@H](Cc1ccccc1)NC(=O)[C@H](Cc1c[nH]c2ccccc12)NC(=O)[C@@H]1CCCN1C(=O)[C@@H](N)Cc1ccc(O)cc1)C(=O)N[C@@H](Cc1c[nH]c2ccccc12)C(=O)NCc1cc(C(F)(F)F)cc(C(F)(F)F)c1 [AKG221, H-Tyr-Pro-Trp-Phe-Pro-Leu-Trp-NH-Bn(3′,5′-(CF3)2)] (H-YPWFPLW-{NH(3,5-(CF3)2-benzyl)}) | 3.34 ± 0.32 nM |  |  |  |  |  |  | 38.5 ± 3.6 nM |  | 
CC(C)C[C@H](NC(=O)[C@@H]1CCCN1C(=O)[C@H](Cc1ccccc1)N(C)C(=O)[C@H](Cc1c[nH]c2ccccc12)NC(=O)[C@@H]1CCCN1C(=O)[C@@H](N)Cc1ccc(O)cc1)C(=O)N[C@@H](Cc1c[nH]c2ccccc12)C(=O)NCc1cc(C(F)(F)F)cc(C(F)(F)F)c1 [AKG223, H-Tyr-Pro-Trp-NMePhe-Pro-Leu-Trp-NH-Bn(3′,5′-(CF3)2)] (H-YPW[NMeF]PLW-{NH(3,5-(CF3)2-benzyl)}) | 3.59 ± 0.3 nM |  |  |  |  |  |  | 10.1 ± 6.3 nM |  | 
CC(C)C[C@H](NC(=O)[C@@H]1CCCN1C(=O)[C@H](Cc1ccccc1)N(C)C(=O)[C@H](Cc1c[nH]c2ccccc12)N(C)C(=O)[C@@H]1CCCN1C(=O)[C@@H](N)Cc1ccc(O)cc1)C(=O)N[C@@H](Cc1c[nH]c2ccccc12)C(=O)NCc1cc(C(F)(F)F)cc(C(F)(F)F)c1 [AKG225, H-Tyr-Pro-NMeTrp-NMePhe-Pro-Leu-Trp-NH-Bn(3′,5′-(CF3)2)] (H-YP[NMeW][NMeF]PLW-{NH(3,5-(CF3)2-benzyl)}) | 14.8 ± 1.4 nM | 1/20 |  |  |  |  |  | 302 ± 78.5 nM |  | 
CC(C)C[C@H](NC(=O)[C@@H]1CCCN1C(=O)CNC(=O)[C@H](CCC(N)=O)NC(=O)[C@H](Cc1ccccc1)N(C)C(=O)CNC(=O)[C@@H](C)NC(=O)[C@@H](N)Cc1ccc(O)cc1)C(=O)N[C@@H](Cc1c[nH]c2ccccc12)C(=O)NCc1cc(C(F)(F)F)cc(C(F)(F)F)c1 [AKG-SK-145] (H-Y[dA]G[NMeF]QGPLW-{NH(3,5-(CF3)2-benzyl)}) | 7.5 nM | 1/16 | 2 nM | −8.43 ± 0.08 | 1/3 |  | 14.5 nM | 120 nM and 125 nM | 6 nM | 
Cc1cc(O)cc(C)c1C[C@H](N)C(=O)N[C@H](C)C(=O)NCC(=O)N(C)[C@@H](Cc1ccccc1)C(=O)N[C@@H](CCC(N)=O)C(=O)NCC(=O)N1CCC[C@H]1C(=O)N[C@@H](CC(C)C)C(=O)N[C@@H](Cc1c[nH]c2ccccc12)C(=O)NCc1cc(C(F)(F)F)cc(C(F)(F)F)c1 [AKG-SK-146] (H-[Dmt][dA]G[NMeF]QGPLW-{NH(3,5-(CF3)2-benzyl)}; N-terminus assumed) | 6.37 ± 1.54 nM | 1/15 | 0.6 nM | −8.94 ± 0.17 | 1/1 |  | 1.41 nM | 78.6 ± 9.8 nM | 0.6 nM | 
CC(C)C[C@H](NC(=O)[C@@H]1CCCN1C(=O)[C@H](Cc1ccccc1)NC(=O)CNC(=O)[C@@H](C)NC(=O)[C@@H](N)Cc1ccc(O)cc1)C(=O)N[C@@H](Cc1c[nH]c2ccccc12)C(=O)NCc1cc(C(F)(F)F)cc(C(F)(F)F)c1 [TY012, reference compound] |  |  |  | −7.7 ± 0.21 |  |  |  |  |  | Ki (hNK1; read-out: Ki^hNK1): 0.61 nM; Ki (rNK1; read-out: Ki^rNK1): 33 nM
CSCC[C@H](NC(=O)[C@H](Cc1ccccc1)NC(=O)CNC(=O)[C@@H](C)NC(=O)[C@@H](N)Cc1ccc(O)cc1)C(=O)N1CCC[C@H]1C(=O)N[C@@H](CC(C)C)C(=O)N[C@@H](Cc1c[nH]c2ccccc12)C(=O)NCc1cc(C(F)(F)F)cc(C(F)(F)F)c1 [TY027, H-Tyr-D-Ala-Gly-Phe-Met-Pro-Leu-Trp-NH-Bn(3′,5′-(CF3)2), reference compound] | 1.5 nM and 2 nM |  |  |  |  |  |  | 10 nM and 14 nM |  | 

Source: patent US11141452B2, “Bifunctional compounds for relief of pain comprising an opioid receptor agonist moiety and a NK1 receptor antagonist moiety and methods for treating pain” (THE ARIZONA BOARD OF REGENTS ON BEHALF OF THE UNIVERSITY OF …, priority 2014, dated 2021)
